Columns and labels:
[1] = test system: Mouse melanocytes (Mel-Ab cells); assay: Melanin production inhibitory effect using mouse melanocytes (Dooley method); format: cell-based; settings: 10 ppm of test substance for 3 days, absorbance at 400 nm
human skin = assay: Whitening effect on human skin after UVB-induced blackness; format: in vivo; settings: 10 weeks, colorimeter
Excerpt: An opaque tape having a perforated hole of a 1.5 cm-diameter was attached to the upper arm of each of 12 healthy men. Then, UV rays (UVB) were irradiated to each of the subjects at a dose 1.5-2 times higher than the minimal erythema dose, thus inducing skin's blackness.
After the UV irradiation, a 1 wt % solution of each of the test samples (1,3-butyleneglycol: ethanol=7:3, as a vehicle) was applied to the skin of each subject. As negative and positive control groups, a 3 wt % solution of each of […] was applied to the skin of each subject. […] The skin color was measured with a colorimeter (Minolta, Japan) at a 1-week interval. Then, the difference (ΔL*) in skin color between the time point of application and the time point of completion of application of each sample was calculated according to the following equation 2, and the calculation results are shown in Table 2 below. Meanwhile, the whitening effect of each sample was evaluated by comparing ΔL* between the site applied with each sample and the control site.

[2] = 1 wt % solution in 1,3-butyleneglycol:ethanol=7:3 applied to UVB-irradiated upper arm of 12 healthy men

Row | Compound | Melanin production inhibitory rate (%) [1] [%] | Lightless (ΔL*) of skin color (human skin; [2]) | inhibition at 10 ppm ([1]; Mus musculus, 72 h, read-out: Melanin production inhibitory rate (%)) [%] | Lightless (ΔL*) of skin color (human skin; 3 wt % solution (positive control) applied to UVB-irradiated upper arm of 12 healthy men)
1 | 20-O-β-D-glucopyranosyl-20(S)-protopanaxatriol [Example 1] | 35.1 | 1.60 ± 0.13 | – | –
2 | 20-O-β-D-glucopyranosyl-20(S)-protopanaxatriol [Example 2] | 33.6 | 1.67 ± 0.17 | – | –
3 | 20-O-β-D-glucopyranosyl-20(S)-protopanaxatriol [Example 3] | 34.2 | 1.71 ± 0.13 | – | –
4 | 20-O-β-D-glucopyranosyl-20(S)-protopanaxatriol [Example 4] | 34.9 | 1.64 ± 0.21 | – | –
5 | 20-O-β-D-glucopyranosyl-20(S)-protopanaxatriol [ginsenoside F1] | – | higher than 1.6 | – | –
6 | O=c1cc(CO)occ1O [Kojic acid, reference compound] | – | – | 30.5 | 1.56 ± 0.11
